Experimental data as given in PubChem BioAssay (NCI).
Where “and” joins values, the source holds several entries; their conditions need not be identical. Equal entries are not always repeated.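 Tested at 5 concentrations; 48 h exposure; 96-well plates; endpoints linearly interpolated, else capped at highest concentration. GI50 marks 50% less growth. At the TGI there is no net growth.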

Key:
Test in all cases: NCI tumour cell line growth inhibition, 48 h
BT-549 breast = tested on: BT-549 breast
DU-145 prostate = tested on: DU-145 prostate
HS 578T breast = tested on: HS 578T breast
MDA-MB-231 breast = tested on: MDA-MB-231 breast
NCI/ADR-RES ovarian = tested on: NCI/ADR-RES ovarian
DLD-1 colon = tested on: DLD-1 colon
DMS 114 small cell lung = tested on: DMS 114 small cell lung
KM20L2 colon = tested on: KM20L2 colon
LXFL 529 NSCLC = tested on: LXFL 529 NSCLC

Compound | GI50 (BT-549 breast) | TGI (BT-549 breast) | GI50 (DU-145 prostate) | TGI (DU-145 prostate) | GI50 (HS 578T breast) | TGI (HS 578T breast) | GI50 (MDA-MB-231 breast) | TGI (MDA-MB-231 breast) | GI50 (NCI/ADR-RES ovarian) | TGI (NCI/ADR-RES ovarian) | TGI (DLD-1 colon) [µM] | TGI (DMS 114 small cell lung) [µM] | TGI (KM20L2 colon) [µM] | TGI (LXFL 529 NSCLC) [µM]
COc1cc2c(cc1OCCCCNC(=O)c1cc3ccccc3[nH]1)N=CC1CCCN1C2=O (stereo unspecified) | 8.79 µM | 51.1 µM | 5.31 µM | 69.8 µM | 16.1 µM | 71.5 µM | 14.9 µM | 66.8 µM | 20.9 µM | > 100 µM |  |  |  | 
COc1ccc(Nc2c3ccccc3nc3c2c2ccccc2n3C)cc1 | 11 µM | 43.4 µM | 15.6 µM | > 100 µM | 46.4 µM | > 100 µM | 34.8 µM | > 100 µM | 34 µM | > 100 µM |  |  |  | 
N/C(=N\O)c1ncc(-c2ccc(C(F)(F)F)cc2)c(NC2CCCCCC2)n1 | 4.54 µM | 18.2 µM | 6.78 µM and 3.38 µM | 16.1 µM | 5.67 µM | 23.2 µM | 3.96 µM | 19.3 µM | 4.41 µM and 0.593 µM | 13.4 µM |  |  |  | 
CC/C(=N\Nc1nc2ccccc2n1C)c1ccccn1 | 0.243 µM | 12.8 µM | 0.127 µM | 12.7 µM | 0.923 µM | 12.7 µM | 0.14 µM | 11.8 µM | 0.0382 µM | 4.9 µM |  |  |  | 
O=C(Nc1cccc(Cl)c1)Nc1cccc(Cl)c1 | > 100 µM | > 100 µM |  |  | > 100 µM | > 100 µM | 18.2 µM | > 100 µM |  |  |  |  |  | 
O=S(=O)(NCCNc1nccc(-c2c(-c3cccc(O)c3)nc3sccn23)n1)c1ccc(F)cc1 | 5.32 µM | 30 µM | 8.94 µM | 38.7 µM | 2.93 µM | 11.7 µM | 4.88 µM | 44.8 µM | 53 µM | > 100 µM |  |  |  | 
CCCNc1nc(N(C)O)nc(N(C)O)n1 | 3.34 µM | > 29.9 µM | 1.46 µM | > 30.1 µM | 6.51 µM | > 100 µM | 5.31 µM | > 100 µM | 2.15 µM | > 100 µM |  |  |  | 
CC1=C(N2CC2)C(=O)C(CO)=C(N2CC2)C1=O |  | 1.95 µM |  | 1.3 µM | 0.139 µM | 0.352 µM and 1.43 µM | 0.14 µM |  | 0.0161 µM | 0.0671 µM and 0.0182 µM |  |  |  | 
COC(=O)/C(C#N)=C\N1CCN(C(=O)c2ccco2)C1=S | 4.16 µM | 13.6 µM | 3.54 µM | 14 µM |  |  | 4.17 µM | 15.8 µM | 24 µM | 58.4 µM |  |  |  | 
COc1ccc(CN2c3ccccc3Sc3ccccc32)cc1F | 1.34 µM | > 23.4 µM | 0.477 µM | > 100 µM | 0.458 µM | > 100 µM | 0.917 µM | > 88.1 µM | 0.322 µM |  |  |  |  | 
CCN1CCN(CCOc2ccc(CNc3ccc4nc(CCC5CCCCC5)[nH]c4c3)cc2)CC1 | 1.58 µM | 3.04 µM | 3.91 µM | 14 µM | 1.61 µM | 4.85 µM | 1.6 µM | 3.11 µM | 3.11 µM | 11.2 µM |  |  |  | 
O=C1C2=C(C(=O)c3c(O)ccc(O)c31)N(c1ccc(N3CCOCC3)nc1)Cc1ccccc1O2 | 0.249 µM | 0.845 µM | 0.326 µM | 1.03 µM | 1.52 µM | > 55.4 µM | 0.243 µM | 0.814 µM | 0.401 µM | 13 µM |  |  |  | 
O=C(Oc1cccnc1)c1ccccc1Nc1ccnc(C(F)(F)F)c1 | 0.104 µM | 2.18 µM | 0.273 µM | 3.17 µM | 4.13 µM | > 100 µM | 0.233 µM | > 62.2 µM | 0.186 µM | > 100 µM |  |  |  | 
Cn1cc(-c2csc(-c3c[nH]c4ncccc34)n2)c2cc(Br)cnc21 | 20.5 µM | > 100 µM | 3.51 µM | > 100 µM | 2.43 µM | > 100 µM | 3.02 µM | > 100 µM | 3.89 µM | > 100 µM |  |  |  | 
Oc1nc(NCCc2ccccc2)sc1/C=C1\C=Nc2ncccc21 | 1.23 µM and 1.35 µM | 3.26 µM and 3.34 µM | 2.96 µM and 3.09 µM | 12.8 µM and 16.5 µM | 2.55 µM and 3.19 µM | 7.44 µM and 9.51 µM | 3.05 µM and 3.74 µM | 9.27 µM and 21.6 µM | 12.2 µM and 8.3 µM | 50 µM and > 100 µM |  |  |  | 
O=C(CCCn1c2c(sc3ncccc32)c(=O)n2nnc(-c3ccccc3)c12)NCCc1cnc[nH]1 |  |  | 2.77 µM | 19.7 µM | 11.3 µM | 31.5 µM | 17.8 µM | 34.6 µM | 34.1 µM | > 100 µM |  |  |  | 
COC(=O)CCC(NC(=S)N/N=C(\C)c1ccccn1)C(=O)OC (stereo unspecified) |  |  |  |  |  |  |  |  |  |  | > 100 | 75.8 | > 100 | > 100
C=C1CC[C@@H]2C(C)(C)[C@@H](O)CC[C@@]2(C)[C@@H]1COc1ccc2ccc(=O)oc2c1 | 6.65 µM | 20.1 µM | 17.3 µM | 48.2 µM | 15.4 µM | 49.5 µM | 15.4 µM | 31.8 µM | 10.5 µM | 30.8 µM |  |  |  | 
NC(=S)N/N=C(/CC(=O)c1ccc([N+](=O)[O-])cc1)C(=O)Nc1ncc([N+](=O)[O-])s1 |  |  |  |  |  |  |  |  |  |  | > 100 | > 100 | > 100 | > 100
N#Cc1ccc(Oc2nccc(-c3c(-c4ccc(F)cc4)ncn3C3CCNCC3)n2)cc1 | 24.9 µM | > 25 µM | > 25 µM | > 25 µM | > 25 µM | > 25 µM | > 22.3 µM | > 25 µM | > 25 µM | > 25 µM |  |  |  | 
O=C(N[C@H](c1ccc(Cl)c(Cl)c1)C1CNC1)c1ccc2cnccc2c1 | 2.64 µM | 12 µM | 8.52 µM | 21 µM | 1 µM | 4.71 µM | 3.36 µM | 15 µM | 15.6 µM | 30.2 µM |  |  |  | 
Nc1nc(N)c2cc(CNc3ccc(Cl)c(Cl)c3)ccc2n1 | 1.4 µM | 2.78 µM | 0.68 µM | 1.93 µM | 1.34 µM | 3.02 µM | 0.803 µM | 2.16 µM | 0.802 µM | 3.25 µM |  |  |  | 
